The results in this text go back to ChEMBL document CHEMBL3526136, “Structure and function of cytochromes P450 2B: from mechanism-based inactivators to X-ray crystal structures and back” (Drug Metab Dispos, 2011).

In this test the target is Cytochrome P450 2B4 (Oryctolagus cuniculus) (UniProt P00178). Put plainly: Binding affinity to C-terminal His4-tagged CYP2B4 dH/H226Y mutant (rabbit) after 2 hrs by isothermal titration calorimetric analysis. In general terms: Isothermal titration calorimetry measures the heat released or taken up as one component is titrated into another.

The Kd is the constant that tells how readily two partners part at equilibrium. The low end stands for a tighter complex, the high end for a looser complex.

The compound `Clc1ccc(-n2ccnc2)cc1` returned a Kd of 300 nM. This counts as sub-micromolar.
On to `Clc1ccc(-c2cnc[nH]2)cc1`, for which the dissociation constant (Kd) came to 300 nM. This counts as sub-micromolar.
Turning to `c1ccc(-n2ccnc2)cc1`, binding was characterised by a dissociation constant (Kd) of 300 nM.
On to `c1ccc(COCCn2ccnc2)cc1`, for which the affinity, expressed as Kd, was 300 nM. In other words, the sub-micromolar range.
`c1ccc(Cn2ccnc2)cc1` [BENZYLIMIDAZOLE] registered a Kd of 300 nM.
